Experimental data as given in patent publication US6063778A, “Cephalosporin derivatives and processes for the preparation thereof” (Il-Dong Pharm. Co., Ltd., priority 1995, dated 2000).
In brackets after ≈: the same amount, converted by molar mass. Where two headings read alike, the source gives them in different places.

How the values were obtained:
[1] = tested on: Pseudomonas aeruginosa 1771; assay: MIC by agar dilution, in vitro activity test; format: cell-based; conditions: 37° C., 18 to 20 hours, read-out: Minimal Inhibitory Concentration (MIC)
Description: These MIC values were determined by agar dilution method: that is, two-fold dilutions of each of the test compounds were made and dispersed in a Mueller-Hinton Broth medium.

[2] = tested on: Staphylococcus aureus, Escherichia coli and Pseudomonas aeruginosa; assay: MIC by agar dilution, comparison in words; format: cell-based; conditions: against Staphylococcus aureus, vs Cefotaxime
Description: (§1) These MIC values were determined by agar dilution method: that is, two-fold dilutions of each of the test compounds were made and dispersed in a Mueller-Hinton Broth medium. Standard test strain which had the 10^6 CFU per ml was inoculated on the medium, and was incubated at 37° C. for 18 to 20 hours.

[3] = tested on: Staphylococcus aureus SG511; assay: MIC by agar dilution, in vitro activity test; format: cell-based; conditions: 37° C., 18 to 20 hours, read-out: Minimal Inhibitory Concentration (MIC)
Description: as §1

[4] = tested on: Pseudomonas aeruginosa 9027; assay: MIC by agar dilution, in vitro activity test; format: cell-based; conditions: 37° C., 18 to 20 hours, read-out: Minimal Inhibitory Concentration (MIC)
Description: as §1

[5] = tested on: Streptococcus pyogenes 77A; assay: MIC by agar dilution, in vitro activity test; format: cell-based; conditions: 37° C., 18 to 20 hours, read-out: Minimal Inhibitory Concentration (MIC)
Description: as §1

[6] = tested on: Klebsiella aerogenes 1082E; assay: MIC by agar dilution, in vitro activity test; format: cell-based; conditions: 37° C., 18 to 20 hours, read-out: Minimal Inhibitory Concentration (MIC)
Description: as §1

[7] = tested on: Pseudomonas aeruginosa 1771M; assay: MIC by agar dilution, in vitro activity test; format: cell-based; conditions: 20 h, read-out: Minimal Inhibitory Concentration (MIC)
Description: as §1

Escherichia coli DC 2 = assay: MIC by agar dilution, in vitro activity test; format: cell-based; conditions: DC2, 37° C., 18 to 20 hours, read-out: Minimal Inhibitory Concentration (MIC)
Description: as §1

Escherichia coli DC 0 = assay: MIC by agar dilution, in vitro activity test; format: cell-based; conditions: DC0, 37° C., 18 to 20 hours, read-out: Minimal Inhibitory Concentration (MIC)
Description: as §1

Escherichia coli 078 = assay: MIC by agar dilution, in vitro activity test; format: cell-based; conditions: 37° C., 18 to 20 hours, read-out: Minimal Inhibitory Concentration (MIC)
Description: as §1

Escherichia coli 1507E = assay: MIC by agar dilution, in vitro activity test; format: cell-based; conditions: read-out: Minimal Inhibitory Concentration (MIC)
Description: as §1

[8] = tested on: Pseudomonas aeruginosa 1592E; assay: MIC by agar dilution, in vitro activity test; format: cell-based; conditions: 37° C., 18 to 20 hours, read-out: Minimal Inhibitory Concentration (MIC)
Description: as §1

[9] = tested on: Staphylococcus aureus 503; assay: MIC by agar dilution, in vitro activity test; format: cell-based; conditions: 37° C., 18 to 20 hours, read-out: Minimal Inhibitory Concentration (MIC)
Description: as §1

[10] = tested on: Enterobacter cloace 1321E; assay: MIC by agar dilution, in vitro activity test; format: cell-based; conditions: 37° C., 18 to 20 hours, read-out: Minimal Inhibitory Concentration (MIC)
Description: as §1

[11] = tested on: Klebsiella aerogenes 1522E; assay: MIC by agar dilution, in vitro activity test; format: cell-based; conditions: read-out: Minimal Inhibitory Concentration (MIC)
Description: as §1

Enterobacter cloace P99 = assay: MIC by agar dilution, in vitro activity test; format: cell-based; conditions: P99, 20 h, read-out: Minimal Inhibitory Concentration (MIC)
Description: as §1

Salmonella typhimurium = assay: MIC by agar dilution, in vitro activity test; format: cell-based; conditions: Salmonella enterica, 37° C., 18 to 20 hours, read-out: Minimal Inhibitory Concentration (MIC)
Description: as §1

[12] = tested on: Staphylococcus aureus 285; assay: MIC by agar dilution, in vitro activity test; format: cell-based; conditions: 37° C., 18 to 20 hours, read-out: Minimal Inhibitory Concentration (MIC)
Description: as §1

[13] = tested on: Streptococcus faecium MD 8b; assay: MIC by agar dilution, in vitro activity test; format: cell-based; conditions: Enterococcus faecium, MD8B, 20 h, read-out: Minimal Inhibitory Concentration (MIC)
Description: as §1

Escherichia coli TEM = assay: MIC by agar dilution, in vitro activity test; format: cell-based; conditions: 20 h, read-out: Minimal Inhibitory Concentration (MIC)
Description: as §1

Acute toxicity study = format: in vivo; conditions: in vivo
Description: (§2) In order to illustrate usefulness of the compounds of the present invention, acute toxicity test of the compounds synthesized in the above Examples were carried out. Each dose of the compounds dissolved in saline and buffer solution (PH=7.0) was administered by intravenous or subcutaneous injection. Mortalities of the animals was recorded seven days latter.
(§3) .asterisk-pseud. Mouse: Male ICR strain, 4 weeks

[14] = tested on: Streptococcus pyogenes 71A; assay: MIC by agar dilution, in vitro activity test; format: cell-based; conditions: 37° C., 18 to 20 hours, read-out: Minimal Inhibitory Concentration (MIC)
Description: as §1

[15] = tested on: Pseudomonas aeruginosa 9071; assay: MIC by agar dilution, in vitro activity test; format: cell-based; conditions: 37° C., 18 to 20 hours, read-out: Minimal Inhibitory Concentration (MIC)
Description: as §1

Mouse = assay: Acute toxicity study; format: in vivo; conditions: 10080 min
Description: as §2, §3

[16] = Escherichia coli 1507E, agar dilution, 37° C., 18 to 20 hours
[17] = Klebsiella aerogenes 1522E, agar dilution, 37° C., 18 to 20 hours

| SMILES | MIC [1] [µg/mL] | MICs compared with Cefotaxime [2] | MIC [3] [µg/mL] | MIC [6] [µg/mL] | MIC [7] [µg/mL] | MIC (Escherichia coli DC 2) [µg/mL] | MIC (Escherichia coli DC 0) [µg/mL] | MIC (Escherichia coli 078) [µg/mL] | MIC (Escherichia coli 1507E; [16]) [µg/mL] | MIC [8] [µg/mL] | MIC [9] [µg/mL] | MIC [10] [µg/mL] | MIC [11, 17] [µg/mL] | MIC (Enterobacter cloace P99) [µg/mL] | MIC (Salmonella typhimurium) [µg/mL] | MIC [12] [µg/mL] | MIC [13] [µg/mL] | MIC (Escherichia coli TEM) [µg/mL] | MIC [14] [µg/mL] | MIC [15] [µg/mL] | further results |
| --- | --- | --- | --- | --- | --- | --- | --- | --- | --- | --- | --- | --- | --- | --- | --- | --- | --- | --- | --- | --- | --- |
| CC[N+](C)(CC=CC(N)=O)C/C=C/C1=C(C(=O)[O-])N2C(=O)[C@@H](NC(=O)/C(=N\OC)c3csc(N)n3)[C@H]2SC1 (stereo partly drawn) [Example 6, 7β-[(Z)-2-(2-aminothiazol-4-yl)-2-methoxyiminoacetamido]-3-[(E)-3-[(1-carbamoyl-1-propen-3-yl)-3-ethylmethylammonio]-1-propen-1-yl]3-cephem-4-carboxylate] | 3.1 (≈ 5.5 µM) | superior to that of Cefotaxime | 0.8 (≈ 1.42 µM) | 3.1 (≈ 5.5 µM) | 0.4 (≈ 0.71 µM) | 0.05 (≈ 0.0887 µM) | < 0.006 | 0.12 (≈ 0.213 µM) | 0.05 (≈ 0.0887 µM) | 3.1 (≈ 5.5 µM) | 0.8 (≈ 1.42 µM) | 0.025 (≈ 0.0444 µM) | 0.1 (≈ 0.177 µM) | 1.6 (≈ 2.84 µM) | 0.1 (≈ 0.177 µM) | 0.4 (≈ 0.71 µM) | > 100 | 0.05 (≈ 0.0887 µM) |  |  | MIC [4]: 6.3 µg/mL (≈ 11.2 µM); MIC [5]: 0.012 µg/mL (≈ 0.0213 µM); LD50 at 168 h (Acute toxicity study; mouse, iv, i.v, male ICR mouse, 4 weeks, mortality at seven days, read-out: LD50 i.v): > 3000 mg/kg; LD50 at 168 h (Acute toxicity study; mouse, iv, intravenous routes, read-out: acute toxicity in intravenous routes): > 2000 mg/kg; LD50 at 168 h (Acute toxicity study; mouse, sc, s.c, male ICR mouse, 4 weeks, mortality at seven days, read-out: LD50 s.c): > 3000 mg/kg |
| CO/N=C(\C(=O)N[C@@H]1C(=O)N2C(C(=O)[O-])=C(C[n+]3cccc4c3CCC4)CS[C@H]12)c1csc(N)n1 [CPR, Cefpirome, reference compound] | 3.1 (≈ 6.02 µM) |  | 0.8 (≈ 1.55 µM) | 6.3 (≈ 12.2 µM) | 0.8 (≈ 1.55 µM) | 0.1 (≈ 0.194 µM) | 0.012 (≈ 0.0233 µM) | 0.025 (≈ 0.0486 µM) | 0.025 (≈ 0.0486 µM) | 3.1 (≈ 6.02 µM) | 0.8 (≈ 1.55 µM) | 0.025 (≈ 0.0486 µM) | 0.1 (≈ 0.194 µM) | 3.1 (≈ 6.02 µM) | 0.1 (≈ 0.194 µM) | 0.4 (≈ 0.777 µM) | 100 (≈ 194 µM) | 0.05 (≈ 0.0972 µM) | 0.012 (≈ 0.0233 µM) | 6.3 (≈ 12.2 µM) | MIC [4]: 6.3 µg/mL (≈ 12.2 µM); MIC [5]: 0.012 µg/mL (≈ 0.0233 µM) |
| CC[N+](C)(CC=CC(N)=O)C/C=C/C1=C(C(=O)[O-])N2C(=O)[C@@H](NC(=O)/C(=N\OCCF)c3nsc(N)n3)[C@H]2SC1 (stereo partly drawn) [Example 15, 7β-[(Z)-2-(5-amino-1,2,4-thiadiazol-3-yl)-2-fluoroethoxyiminoacetamido]-3-[(E)-3-[(1-carbamoyl-1-propen-3-yl)-3-ethylmethylammonio]-1-propen-1-yl]3-cephem-4-carboxylate] | 3.1 (≈ 5.2 µM) |  | 0.8 (≈ 1.34 µM) | 3.1 (≈ 5.2 µM) | 0.8 (≈ 1.34 µM) | 0.1 (≈ 0.168 µM) | 0.012 (≈ 0.0201 µM) | 0.025 (≈ 0.0419 µM) | 0.1 (≈ 0.168 µM) | 3.1 (≈ 5.2 µM) | 0.8 (≈ 1.34 µM) | 0.05 (≈ 0.0838 µM) | 0.05 (≈ 0.0838 µM) | 0.8 (≈ 1.34 µM) | 0.2 (≈ 0.335 µM) | 0.8 (≈ 1.34 µM) | > 100 | 0.05 (≈ 0.0838 µM) | 0.025 (≈ 0.0419 µM) | 3.1 (≈ 5.2 µM) | LD50 at 168 h (Acute toxicity study; iv, i.v, male ICR mouse, 4 weeks, mortality at seven days, read-out: LD50 i.v): > 2000 mg/kg; LD50 at 168 h (Acute toxicity study; sc, s.c, male ICR mouse, 4 weeks, mortality at seven days, read-out: LD50 s.c): > 3000 mg/kg; acute toxicity in intravenous routes (Mouse; intravenous routes): > 2000 mg/kg; acute toxicity in subcutaneous routes (Mouse; subcutaneous routes): > 3000 mg/kg |
| Cc1ncsc1C[N+](C)(C)C/C=C/C1=C(C(=O)[O-])N2C(=O)[C@@H](NC(=O)/C(=N\OCCF)c3nsc(N)n3)[C@H]2SC1 [Example 14, 7β-[(Z)-2-(5-amino-1,2,4-thiadiazol-3-yl)-2-fluoroethoxyiminoacetamido]-3-[(E)-3-[(4-methylthiazol-5-yl)-methyldimethylammonio]-1-propen-1-yl]3-cephem-4-carboxylate] | 3.1 (≈ 5.08 µM) | superior to that of Cefotaxime | 0.4 (≈ 0.655 µM) | 3.1 (≈ 5.08 µM) | 0.4 (≈ 0.655 µM) | 0.05 (≈ 0.0819 µM) | < 0.006 | 0.012 (≈ 0.0196 µM) |  | 3.1 (≈ 5.08 µM) | 0.8 (≈ 1.31 µM) | 0.012 (≈ 0.0196 µM) |  | 0.4 (≈ 0.655 µM) | 0.1 (≈ 0.164 µM) | 0.8 (≈ 1.31 µM) | > 100 | 0.025 (≈ 0.0409 µM) | 0.05 (≈ 0.0819 µM) | 12.5 (≈ 20.5 µM) | MIC (Escherichia coli 1507E; Escherichia coli, 1507E, 20 h): 0.025 µg/mL (≈ 0.0409 µM); MIC ([11]; Klebsiella aerogenes, 1522E, 20 h): 0.025 µg/mL (≈ 0.0409 µM) |
